According to US20040086901A1, “Database for analyzing gene function and method of analyzing gene function by dspa” (priority 2000, published 2004):

Assays:
Format in all cases: cell-based, mouse
[1] = tested on: NIH3T3 cells overexpressing caspase-2; experiment: MTT cell viability, caspase-2 overexpressing cells vs parental line; conditions: caspase-2 high-expressing cells / parental cell line, 3 to 4 days
In short: (§1)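 Stable NIH3T3 transfectants (cDNA in pRc-CMV-type vector, G-418-selected, high expressers picked by Western blot) and parental cells were seeded at 1×10^5 cells/ml into twofold serial drug dilutions and grown 3–4 days. MTT formazan was read at 574/655 nm, and log ratios of IC40 values were derived.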

[2] = tested on: NIH3T3 cells overexpressing STAT1; experiment: MTT cell viability, STAT1 overexpressing cells vs parental line; conditions: STAT1 high-expressing cells / parental cell line, 3 to 4 days
In short: (§2)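 MTT viability of transfected versus parental NIH3T3 after 3–4 days in twofold drug dilution series; values are log ratios of IC40.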

[3] = tested on: NIH3T3 cells overexpressing v-src; experiment: MTT cell viability, v-src overexpressing cells vs parental line; conditions: v-src high-expressing cells / parental cell line, 3 to 4 days
In short: as §1

[4] = tested on: NIH3T3 cells overexpressing CaMKIIa; experiment: MTT cell viability, CaMKIIa overexpressing cells vs parental line; conditions: CaMKIIa high-expressing cells / parental cell line, 3 to 4 days
In short: as §2

[5] = tested on: NIH3T3 cells overexpressing HNF1; experiment: MTT cell viability, HNF1 overexpressing cells vs parental line; conditions: HNF1 high-expressing cells / parental cell line, 3 to 4 days
In short: as §2

[6] = tested on: NIH3T3 cells overexpressing Bax; experiment: MTT cell viability, Bax overexpressing cells vs parental line; conditions: 3 to 4 days
In short: as §2

[7] = tested on: NIH3T3 cells overexpressing TK; experiment: MTT cell viability, TK overexpressing cells vs parental line; conditions: TK high-expressing cells / parental cell line, 3 to 4 days
In short: as §1

[8] = tested on: NIH3T3 cells overexpressing CBP8; experiment: MTT cell viability, CBP8 overexpressing cells vs parental line; conditions: CBP8 high-expressing cells / parental cell line, 3 to 4 days
In short: as §1

[9] = tested on: NIH3T3 cells overexpressing PDGF-R; experiment: MTT cell viability, PDGF-R overexpressing cells vs parental line; conditions: PDGF-R high-expressing cells / parental cell line, 3 to 4 days
In short: as §1

[10] = tested on: NIH3T3 cells overexpressing cystatin E; experiment: MTT cell viability, cystatin E overexpressing cells vs parental line; conditions: cystatin E high-expressing cells / parental cell line, 3 to 4 days
In short: as §1

[11] = tested on: NIH3T3 cells overexpressing Ki-ras; experiment: MTT cell viability, Ki-ras overexpressing cells vs parental line; conditions: Ki-ras high-expressing cells / parental cell line, 3 to 4 days
In short: as §1

[12] = tested on: NIH3T3 cells overexpressing erbB2; experiment: MTT cell viability, erbB2 overexpressing cells vs parental line; conditions: erbB2 high-expressing cells / parental cell line, 3 to 4 days
In short: as §1

[13] = tested on: NIH3T3 cells overexpressing p38-DN; experiment: MTT cell viability, p38-DN overexpressing cells vs parental line; conditions: p38-DN high-expressing cells / parental cell line, 3 to 4 days
In short: as §2

[14] = tested on: NIH3T3 cells overexpressing p33/ING1; experiment: MTT cell viability, p33/ING1 overexpressing cells vs parental line; conditions: p33/ING1 high-expressing cells / parental cell line, 3 to 4 days
In short: as §1

[15] = tested on: NIH3T3 cells overexpressing HNF4; experiment: MTT cell viability, HNF4 overexpressing cells vs parental line; conditions: HNF4 high-expressing cells / parental cell line, 3 to 4 days
In short: as §2

[16] = tested on: NIH3T3 cells overexpressing caspase-1; experiment: MTT cell viability, caspase-1 overexpressing cells vs parental line; conditions: caspase-1 high-expressing cells / parental cell line, 3 to 4 days
In short: as §2

[17] = tested on: NIH3T3 cells overexpressing Regucalcin; experiment: MTT cell viability, Regucalcin overexpressing cells vs parental line; conditions: Regucalcin high-expressing cells / parental cell line, 3 to 4 days
In short: as §1

[18] = tested on: NIH3T3 cells overexpressing CP-antisense; experiment: MTT cell viability, CP-antisense cells vs parental line; conditions: 3 to 4 days
In short: as §1

[19] = tested on: NIH3T3 cells overexpressing calpastatin; experiment: MTT cell viability, calpastatin overexpressing cells vs parental line; conditions: calpastatin high-expressing cells / parental cell line, 3 to 4 days
In short: as §1

[20] = tested on: NIH3T3 cells overexpressing coup; experiment: MTT cell viability, coup overexpressing cells vs parental line; conditions: coup high-expressing cells / parental cell line, 3 to 4 days
In short: as §1

[21] = Bax (first of two Bax lines) high-expressing cells / parental cell line
[22] = Bax (second of two Bax lines) high-expressing cells / parental cell line

Substance	logarithmic value of ratio of IC40 values [1]	logarithmic value of ratio of IC40 values [2]	logarithmic value of ratio of IC40 values [3]	logarithmic value of ratio of IC40 values [4]	logarithmic value of ratio of IC40 values [5]	logarithmic value of ratio of IC40 values [6, 21]	logarithmic value of ratio of IC40 values [6, 22]	logarithmic value of ratio of IC40 values [7]	logarithmic value of ratio of IC40 values [8]	logarithmic value of ratio of IC40 values [9]	logarithmic value of ratio of IC40 values [10]	logarithmic value of ratio of IC40 values [11]	logarithmic value of ratio of IC40 values [12]	logarithmic value of ratio of IC40 values [13]	logarithmic value of ratio of IC40 values [14]	logarithmic value of ratio of IC40 values [15]	logarithmic value of ratio of IC40 values [16]	logarithmic value of ratio of IC40 values [17]	logarithmic value of ratio of IC40 values [18]	logarithmic value of ratio of IC40 values [19]	other results
ICE inhibitor-III [ICEin-3]	0.04	0.09	−0.14	0.00	0.20	−0.12	0.00	−0.15	0.18	0.20	0.07	0.30	0.18	−0.11	−0.15	0.00	0.11	0.00	−0.19	−0.088	logarithmic value of ratio of IC40 values [20]: −0.11
sodium vanadate	0.40	0.00	0.00	−0.13	0.046	0.00	0.32	0.16	0.03	0.22	0.20	−0.30	−0.40	−0.04	−0.30	−0.03	−0.11	0.00	0.04	0.00	logarithmic value of ratio of IC40 values [20]: −0.10
